From PubChem BioAssay (NCI)
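Test compounds were applied to cells in 96-well plates for 48 hours at 5 doses. TGI: concentration producing complete growth inhibition.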

How the values were obtained:
Test in all cases: NCI-60 cell line screen, 48 h
SK-MEL-28 melanoma = tested on: SK-MEL-28 melanoma
HCT-15 colon = tested on: HCT-15 colon
SW-620 colon = tested on: SW-620 colon
RXF 393 renal = tested on: RXF 393 renal
NCI-H226 lung = tested on: NCI-H226 lung
IGROV1 ovarian = tested on: IGROV1 ovarian
OVCAR-4 ovarian = tested on: OVCAR-4 ovarian
SR leukemia = tested on: SR leukemia
EKVX NSCLC = tested on: EKVX NSCLC
HL-60(TB) leukemia = tested on: HL-60(TB) leukemia
OVCAR-5 ovarian = tested on: OVCAR-5 ovarian
MCF7 breast = tested on: MCF7 breast
HOP-62 NSCLC = tested on: HOP-62 NSCLC
HCT-116 colon = tested on: HCT-116 colon
SK-MEL-5 melanoma = tested on: SK-MEL-5 melanoma
UACC-62 melanoma = tested on: UACC-62 melanoma
A498 renal = tested on: A498 renal
LOX IMVI melanoma = tested on: LOX IMVI melanoma
MDA-MB-231 breast = tested on: MDA-MB-231 breast
COLO 205 colon = tested on: COLO 205 colon
T-47D breast = tested on: T-47D breast
SNB-19 CNS = tested on: SNB-19 CNS
SN12C renal = tested on: SN12C renal
HT29 colon = tested on: HT29 colon
NCI-H23 lung = tested on: NCI-H23 lung
UO-31 renal = tested on: UO-31 renal
OVCAR-8 ovarian = tested on: OVCAR-8 ovarian
TK-10 renal = tested on: TK-10 renal
MALME-3M melanoma = tested on: MALME-3M melanoma
K-562 leukemia = tested on: K-562 leukemia
KM12 colon = tested on: KM12 colon
RPMI-8226 leukemia = tested on: RPMI-8226 leukemia
SK-MEL-2 melanoma = tested on: SK-MEL-2 melanoma
MOLT-4 leukemia = tested on: MOLT-4 leukemia
M14 melanoma = tested on: M14 melanoma
SF-268 CNS = tested on: SF-268 CNS
ACHN renal = tested on: ACHN renal
786-0 renal = tested on: 786-0 renal
HS 578T breast = tested on: HS 578T breast
SNB-75 CNS = tested on: SNB-75 CNS
SF-539 CNS = tested on: SF-539 CNS
HOP-92 NSCLC = tested on: HOP-92 NSCLC
NCI-H460 lung = tested on: NCI-H460 lung
MDA-N = tested on: MDA-N
OVCAR-3 ovarian = tested on: OVCAR-3 ovarian
UACC-257 melanoma = tested on: UACC-257 melanoma
A549 NSCLC = tested on: A549 NSCLC
PC-3 prostate = tested on: PC-3 prostate
MDA-MB-435 = tested on: MDA-MB-435
DU-145 prostate = tested on: DU-145 prostate
CAKI-1 renal = tested on: CAKI-1 renal
SF-295 CNS = tested on: SF-295 CNS
NCI/ADR-RES ovarian = tested on: NCI/ADR-RES ovarian
HCC-2998 colon = tested on: HCC-2998 colon
CCRF-CEM leukemia = tested on: CCRF-CEM leukemia
U251 CNS = tested on: U251 CNS
NCI-H522 lung = tested on: NCI-H522 lung

Q: CC1C[C@]2(C)C(=O)Nc3ccccc3[C@@H]2Nc2ccccc21 (stereo partly drawn) was tested. Which TGI (SK-MEL-28 melanoma) did it give?
A: 95.5 µM

Q: What about the TGI (HCT-15 colon) of the same molecule?
A: > 100 µM

Q: And the TGI (SW-620 colon)?
A: > 100 µM

Q: What about the TGI (RXF 393 renal) of the same molecule?
A: 77.9 µM

Q: What about the TGI (NCI-H226 lung) of the same molecule?
A: 76.1 µM

Q: And the TGI (IGROV1 ovarian)?
A: 78.2 µM

Q: And the TGI (OVCAR-4 ovarian)?
A: > 100 µM

Q: What about the TGI (SR leukemia) of the same molecule?
A: 41.4 µM

Q: What about the TGI (EKVX NSCLC) of the same molecule?
A: 81.8 µM

Q: And the TGI (HL-60(TB) leukemia)?
A: 61 µM

Q: What about the TGI (OVCAR-5 ovarian) of the same molecule?
A: > 100 µM

Q: And the TGI (MCF7 breast)?
A: 84.9 µM

Q: What about the TGI (HOP-62 NSCLC) of the same molecule?
A: 57.4 µM

Q: What about the TGI (HCT-116 colon) of the same molecule?
A: 33.6 µM

Q: What about the TGI (SK-MEL-5 melanoma) of the same molecule?
A: 31.3 µM

Q: And the TGI (UACC-62 melanoma)?
A: 45.3 µM

Q: And the TGI (A498 renal)?
A: 53.4 µM

Q: What about the TGI (LOX IMVI melanoma) of the same molecule?
A: 30.8 µM

Q: And the TGI (MDA-MB-231 breast)?
A: 36 µM

Q: What about the TGI (COLO 205 colon) of the same molecule?
A: 34 µM

Q: And the TGI (T-47D breast)?
A: > 100 µM

Q: And the TGI (SNB-19 CNS)?
A: > 100 µM

Q: And the TGI (SN12C renal)?
A: 37.6 µM

Q: What about the TGI (HT29 colon) of the same molecule?
A: 30 µM

Q: What about the TGI (NCI-H23 lung) of the same molecule?
A: 54.8 µM

Q: And the TGI (UO-31 renal)?
A: > 100 µM

Q: What about the TGI (OVCAR-8 ovarian) of the same molecule?
A: 28.9 µM

Q: What about the TGI (TK-10 renal) of the same molecule?
A: 58 µM

Q: What about the TGI (MALME-3M melanoma) of the same molecule?
A: 62 µM

Q: And the TGI (K-562 leukemia)?
A: > 100 µM

Q: What about the TGI (KM12 colon) of the same molecule?
A: 39.1 µM

Q: What about the TGI (RPMI-8226 leukemia) of the same molecule?
A: 59.5 µM

Q: What about the TGI (SK-MEL-2 melanoma) of the same molecule?
A: 45 µM

Q: And the TGI (MOLT-4 leukemia)?
A: 59.2 µM

Q: What about the TGI (M14 melanoma) of the same molecule?
A: 55.3 µM

Q: What about the TGI (SF-268 CNS) of the same molecule?
A: > 100 µM

Q: And the TGI (ACHN renal)?
A: > 100 µM

Q: And the TGI (786-0 renal)?
A: 45.2 µM

Q: What about the TGI (HS 578T breast) of the same molecule?
A: 72.9 µM

Q: And the TGI (SNB-75 CNS)?
A: > 100 µM

Q: What about the TGI (SF-539 CNS) of the same molecule?
A: 63.5 µM

Q: And the TGI (HOP-92 NSCLC)?
A: 27.6 µM

Q: And the TGI (NCI-H460 lung)?
A: 65.8 µM

Q: What about the TGI (MDA-N) of the same molecule?
A: > 100 µM

Q: What about the TGI (OVCAR-3 ovarian) of the same molecule?
A: 35.9 µM

Q: And the TGI (UACC-257 melanoma)?
A: 39.5 µM

Q: And the TGI (A549 NSCLC)?
A: > 100 µM

Q: What about the TGI (PC-3 prostate) of the same molecule?
A: 61.3 µM

Q: What about the TGI (MDA-MB-435) of the same molecule?
A: 55.5 µM

Q: And the TGI (DU-145 prostate)?
A: > 100 µM

Q: And the TGI (CAKI-1 renal)?
A: 74.3 µM

Q: What about the TGI (SF-295 CNS) of the same molecule?
A: > 100 µM

Q: What about the TGI (NCI/ADR-RES ovarian) of the same molecule?
A: 46.5 µM

Q: What about the TGI (HCC-2998 colon) of the same molecule?
A: 88.5 µM

Q: What about the TGI (CCRF-CEM leukemia) of the same molecule?
A: 63.4 µM

Q: For O=C(O)c1cccnc1, which TGI (SK-MEL-28 melanoma) is on record?
A: > 100 µM

Q: And the TGI (HCT-15 colon)?
A: > 100 µM

Q: What about the TGI (U251 CNS) of the same molecule?
A: > 100 µM

Q: What about the TGI (SW-620 colon) of the same molecule?
A: > 100 µM

Q: And the TGI (NCI-H226 lung)?
A: > 100 µM

Q: And the TGI (IGROV1 ovarian)?
A: > 100 µM

Q: What about the TGI (OVCAR-4 ovarian) of the same molecule?
A: > 100 µM

Q: And the TGI (SR leukemia)?
A: > 100 µM

Q: What about the TGI (EKVX NSCLC) of the same molecule?
A: > 100 µM

Q: What about the TGI (HL-60(TB) leukemia) of the same molecule?
A: > 100 µM

Q: And the TGI (OVCAR-5 ovarian)?
A: > 100 µM

Q: What about the TGI (MCF7 breast) of the same molecule?
A: > 100 µM

Q: What about the TGI (HOP-62 NSCLC) of the same molecule?
A: > 100 µM

Q: What about the TGI (HCT-116 colon) of the same molecule?
A: > 100 µM

Q: What about the TGI (SK-MEL-5 melanoma) of the same molecule?
A: > 100 µM

Q: And the TGI (LOX IMVI melanoma)?
A: > 100 µM

Q: What about the TGI (MDA-MB-231 breast) of the same molecule?
A: > 100 µM

Q: What about the TGI (COLO 205 colon) of the same molecule?
A: > 100 µM

Q: And the TGI (T-47D breast)?
A: > 100 µM

Q: And the TGI (SNB-19 CNS)?
A: > 100 µM

Q: And the TGI (SN12C renal)?
A: > 100 µM

Q: And the TGI (HT29 colon)?
A: > 100 µM

Q: And the TGI (NCI-H23 lung)?
A: > 100 µM

Q: What about the TGI (UO-31 renal) of the same molecule?
A: > 100 µM

Q: What about the TGI (OVCAR-8 ovarian) of the same molecule?
A: > 100 µM

Q: What about the TGI (TK-10 renal) of the same molecule?
A: > 100 µM

Q: And the TGI (MALME-3M melanoma)?
A: > 100 µM

Q: And the TGI (K-562 leukemia)?
A: > 100 µM

Q: What about the TGI (KM12 colon) of the same molecule?
A: > 100 µM

Q: And the TGI (RPMI-8226 leukemia)?
A: > 100 µM

Q: And the TGI (MOLT-4 leukemia)?
A: > 100 µM

Q: And the TGI (M14 melanoma)?
A: > 100 µM

Q: What about the TGI (SF-268 CNS) of the same molecule?
A: > 100 µM

Q: And the TGI (ACHN renal)?
A: > 100 µM

Q: And the TGI (786-0 renal)?
A: > 100 µM

Q: What about the TGI (HS 578T breast) of the same molecule?
A: > 100 µM

Q: And the TGI (SNB-75 CNS)?
A: > 100 µM

Q: What about the TGI (SF-539 CNS) of the same molecule?
A: > 100 µM

Q: What about the TGI (HOP-92 NSCLC) of the same molecule?
A: > 100 µM

Q: And the TGI (NCI-H460 lung)?
A: > 100 µM

Q: What about the TGI (MDA-N) of the same molecule?
A: > 100 µM

Q: And the TGI (OVCAR-3 ovarian)?
A: > 100 µM

Q: And the TGI (UACC-257 melanoma)?
A: > 100 µM

Q: And the TGI (A549 NSCLC)?
A: > 100 µM

Q: And the TGI (PC-3 prostate)?
A: > 100 µM

Q: And the TGI (MDA-MB-435)?
A: > 100 µM

Q: What about the TGI (NCI-H522 lung) of the same molecule?
A: > 100 µM

Q: And the TGI (DU-145 prostate)?
A: > 100 µM

Q: And the TGI (CAKI-1 renal)?
A: > 100 µM

Q: What about the TGI (SF-295 CNS) of the same molecule?
A: > 100 µM

Q: What about the TGI (NCI/ADR-RES ovarian) of the same molecule?
A: > 100 µM

Q: And the TGI (HCC-2998 colon)?
A: > 100 µM

Q: What about the TGI (CCRF-CEM leukemia) of the same molecule?
A: > 100 µM
